These results are taken from patent US20240059703A1 (AMGEN INC., priority 2021, published 2024).

Where only a bound is given, the exact number is not on record here.

For orientation: IC50 means the concentration needed to halve the response being measured. A low value points to greater potency.

Test [1] concerns the target KRAS G12C (Homo sapiens (Human), UniProt P01116, C118A/G12C). Put plainly: 2 h coupled exchange assay. The test is classed as biochemical. The conditions noted are these: Avg 2 h Coupled exchange IC50, 2 h compound pre-incubation, SOS-mediated nucleotide exchange. The protocol: The term “2 h coupled exchange assay” or “20 h coupled exchange assay” as used herein refers to the assay described in the Section entitled “BIOLOGICAL EVALUATION.”

The subject of test [2] is A549 (human lung carcinoma) cells. Put plainly: Cell Viability Assay (CellTiter-Glo), A549. In kind it is cell-based. Particulars: Homo sapiens, A549, 72 h. In outline: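 Cells grown in RPMI 1640 with 10% FBS were seeded at 1.67E+04 cells/mL and left overnight at 37° C., 5% CO2. They were then exposed to serially diluted compound for 72 h, after which CellTiter-Glo luminescence was read, normalized to DMSO, and fitted to a 4-parameter logistic model for IC50.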

In test [3] the test system is MIA PaCa-2 (human pancreatic carcinoma) cells. Put plainly: Cell Viability Assay (CellTiter-Glo), MIA PaCa-2. The test is classed as cell-based. The conditions noted are these: Homo sapiens, MIA PaCa-2, 72 h. Here is the method:
Serially-diluted compound or DMSO was added to the cells, and plates were incubated at 37° C., 5% CO2 for 72 h. Cell viability was measured using a CellTiter-Glo® Luminescent Cell Viability Assay kit (Promega) according to the manufacturer's protocol. The luminescence signal of treated samples was normalized to DMSO control, and data were analyzed using a 4-parameter logistic model to calculate IC50 values.

KRAS G12C, sequence (P01116 other isoform, or with tags, fused parts or gaps G12C/C118A): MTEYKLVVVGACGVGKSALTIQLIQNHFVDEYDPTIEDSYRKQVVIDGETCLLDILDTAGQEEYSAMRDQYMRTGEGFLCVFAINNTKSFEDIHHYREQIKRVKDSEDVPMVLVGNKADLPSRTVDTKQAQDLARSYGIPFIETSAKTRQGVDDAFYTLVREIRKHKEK

On to `C=CC(=O)N1CC2(CCN(c3nc4c(c(-c5cccc6cccc(C)c56)n3)CCC(C)(C)C4)C2)C1` [Example 1-30, 1-(6-(7,7-dimethyl-4-(8-methyl-1-naphthalenyl)-5,6,7,8-tetrahydro-2-quinazolinyl)-2,6-diazaspiro[3.4]octan-2-yl)-2-propen-1-one], for which the values for the IC50 in test [1], in test [2] and in test [3] were 3.46 µM, 10.3 µM and above 5 µM, respectively.
The like results for `C=CC(=O)N1CC2(CCN(c3nc4c(c(-c5cc(O)cc6ccccc56)n3)CCC(C)(C)C4)C2)C1` [Example 1-31, 1-(6-(4-(3-hydroxy-1-naphthalenyl)-7,7-dimethyl-5,6,7,8-tetrahydro-2-quinazolinyl)-2,6-diazaspiro[3.4]octan-2-yl)-2-propen-1-one] were, in that order, 0.075 µM, above 5 µM and above 5 µM.
On to `C=CC(=O)N1CC2(CCN(c3nc(-c4ccccc4F)c4ccn(C)c4n3)C2)C1` [Example 1-32], for which the IC50 is 250 µM in test [1], 12.1 µM in test [2] and 17.1 µM in test [3].
Turning to `C=CC(=O)N1CC2(CCN(c3nc(-c4ccccc4F)c4c(n3)N(C)CCC4)C2)C1` [Example 1-33, 1-(6-(4-(2-fluorophenyl)-8-methyl-5,6,7,8-tetrahydropyrido[2,3-d]pyrimidin-2-yl)-2,6-diazaspiro[3,4]octan-2-yl)-2-propen-1-one], the concentration for half-maximal inhibition (IC50) in test [1] was found to be 174 µM; in test [2], 13.5 µM; in test [3], 13.4 µM.
On to `C=CC(=O)N1CC2(CCN(c3nc4c(c(-c5c(C(C)C)ccc6[nH]ncc56)n3)CCCC4)C2)C1` [Example 1-35, 1-(6-(4-(5-(2-propanyl)-1H-indazol-4-yl)-5,6,7,8-tetrahydro-2-quinazolinyl)-2,6-diazaspiro[3.4]octan-2-yl)-2-propen-1-one], for which the concentration for half-maximal inhibition (IC50) in test [1] came out at 1.55 µM; in test [2], 7.12 µM; in test [3], 2.37 µM.
For the molecule `C=CC(=O)N1CC2(CCN(c3nc4c(c(-c5c(C)ccc6[nH]nc(C)c56)n3)CCCC4)C2)C1` [Example 1-36, 1-(6-(4-(3,5-dimethyl-1H-indazol-4-yl)-5,6,7,8-tetrahydro-2-quinazolinyl)-2,6-diazaspiro[3.4]octan-2-yl)-2-propen-1-one], the concentration for half-maximal inhibition (IC50) in test [1] came out at 1.66 µM; in test [2], 15.9 µM; in test [3], 3.38 µM.
Consider `C=CC(=O)N1CC2(CCN(c3cn4c(C)cnc4c(-c4c(C)ccc5[nH]ncc45)c3C#N)C2)C1` [Example 1-37, 3-methyl-8-(5-methyl-1H-indazol-4-yl)-6-(2-(2-propenoyl)-2,6-diazaspiro[3.4]octan-6-yl)imidazo[1,2-a]pyridine-7-carbonitrile], for which the half-maximal inhibitory concentration (IC50) in test [1] is 0.402 µM; in test [2], above 25 µM; in test [3], 2.28 µM.
In the case of `C=CC(=O)N1CC2(CCN(c3cn4cc(-c5ccccc5)nc4c(-c4c(C)ccc5[nH]ncc45)c3C#N)C2)C1` [Example 1-38, 8-(5-methyl-1H-indazol-4-yl)-2-phenyl-6-(2-(2-propenoyl)-2,6-diazaspiro[3.4]octan-6-yl)imidazo[1,2-al]yridine-7-carbonitrile], the figures for the IC50 in test [1], in test [2] and in test [3] were 0.103 µM, 6.25 µM and 0.294 µM, respectively.
The like results for `C=CC(=O)N1CC2(C1)CN(c1nc3c(F)cccc3c(-c3c(C)ccc4[nH]ncc34)c1C#N)CC2(F)F` [Example 1-39, 2-(8,8-difluoro-2-(2-propenoyl)-2,6-diazaspiro[3.4]octan-6-yl)-8-fluoro-4-(5-methyl-1H-indazol-4-yl)-3-quinolinecarbonitrile] were, in that order, 0.757 µM, 6.25 µM and 2.75 µM.
On to `C=CC(=O)N1CC2(CCN(c3nc(-c4c(C)ccc5[nH]ncc45)c4ccc(OC)cc4n3)C2)C1` [Example 1-41, 1-(6-(7-methoxy-4-(5-methyl-1H-indazol-4-yl)-2-quinazolinyl)-2,6-diazaspiro[3.4]octan-2-yl)-2-propen-1-one], for which the results for the half-inhibitory concentration (IC50) in test [1], in test [2] and in test [3] were 0.882 µM, above 5 µM and above 5 µM, respectively.
As to `C=CC(=O)N1CC2(CCN(c3nc4c(c(-c5cccc6cccc(C)c56)n3)OCCC4)C2)C1` [Example 1-42, 1-(6-(4-(8-methyl-1-naphthalenyl)-7,8-dihydro-6H-pyrano[3,2-d]pyrimidin-2-yl)-2,6-diazaspiro[3,4]octan-2-yl)-2-propen-1-one], the values for the IC50 in test [1], in test [2] and in test [3] were 0.456 µM, 22.8 µM and 5.92 µM, respectively.
Turning to `C=CC(=O)N1CC2(CCN(c3nc4c(F)cccc4c(-c4c(C)ccc5[nH]ncc45)c3C#N)CC2(F)F)C1` [Example 1-43, 2-(5,5-difluoro-2-(2-propenoyl)-2,7-diazaspiro[3.5]nonan-7-yl)-8-fluoro-4-(5-methyl-1H-indazol-4-yl)-3-quinolinecarbonitrile], the half-maximal inhibitory concentration (IC50) in test [1] is 0.858 µM; in test [2], 6.25 µM; in test [3] it was 2.16 µM.
As to `C=CC(=O)N1CC2(CCN(c3nc4c(F)cccc4c(-c4c(C)ccc5[nH]ncc45)c3C#N)C2=O)C1` [Example 1-44, 8-fluoro-4-(5-methyl-1H-indazol-4-yl)-2-(5-oxo-2-(2-propenoyl)-2,6-diazaspiro[3,4]octan-6-yl)-3-quinolinecarbonitrile], the IC50 in test [1] stood at 6.83 µM; in test [2], 12.5 µM; in test [3] it was 6.4 µM.
With `C=CC(=O)N1CC2(CCN(c3nc4cc(OC)ccc4c(-c4c(C)ccc5[nH]ncc45)c3C#N)C2)C1` [Example 1-45, 7-methoxy-4-(5-methyl-1H-indazol-4-yl)-2-(2-(2-propenoyl)-2,6-diazaspiro[3.4]octan-6-yl)-3-quinolinecarbonitrile], the IC50 in test [1] is 0.032 µM; in test [2] it was above 5 µM; in test [3] it was 0.332 µM.
`Cc1ccc2[nH]ncc2c1-c1c(C#N)c(N2CCC3(CN(C(=O)/C=C/CN(C)C)C3)C2)nc2c(F)cccc12` [Example 1-46, 2-(2-((2E)-4-(dimethylamino)-2-butenoyl)-2,6-diazaspiro[3.4]octan-6-yl)-8-fluoro-4-(5-methyl-1H-indazol-4-yl)-3-quinolinecarbonitrile]: the results for the half-inhibitory concentration (IC50) in test [1], in test [2] and in test [3] were 1.53 µM, 6.25 µM and 2.02 µM, respectively.
The like results for `C=CC(=O)N1CC2(CCN(c3cn4ncnc4c(-c4c(C)ccc5[nH]ncc45)c3C#N)C2)C1` [Example 1-48, 8-(5-methyl-1H-indazol-4-yl)-6-(2-(2-propenoyl)-2,6-diazaspiro[3.4]octan-6-yl)[1,2,4]triazolo[1,5-a]pyridine-7-carbonitrile] were, in that order, 0.554 µM, above 5 µM and above 5 µM.
The like results for `C=CC(=O)N1CC2(CCN(c3nc4c(F)cccc4c(-c4c(C)ccc5[nH]ncc45)c3C#N)C2CF)C1` (stereo not drawn) [Example 1-49, 8-fluoro-2-(5-(fluoromethyl)-2-(2-propenoyl)-2,6-diazaspiro[3.4]octan-6-yl)-4-(5-methyl-1H-indazol-4-yl)-3-quinolinecarbonitrile] were, in that order, 0.124 µM, 13.4 µM and 24.6 µM.
On to `C=CC(=O)N1CC2(CCN(c3nc4c(ccn4C)c(-c4c(C)ccc5[nH]ncc45)c3C#N)C2)C1` [Example 1-50, 1-methyl-4-(5-methyl-1H-indazol-4-yl)-6-(2-(2-propenoyl)-2,6-diazaspiro[3.4]octan-6-yl)-1H-pyrrolo[2,3-b]pyridine-5-carbonitrile], for which the figures for the IC50 in test [1], in test [2] and in test [3] were 0.498 µM, above 5 µM and above 5 µM, respectively.
For `C=CC(=O)N1CC2(CCN(c3nc4c(N5CCCC5)ccn4c(-c4c(C)ccc5[nH]ncc45)c3C#N)C2)C1` [Example 1-52], the IC50 in test [1] was determined as 0.244 µM; in test [2], 39 µM; in test [3] it was 1.89 µM.
Regarding `C=CC(=O)N1CC2(CCN(c3nc4c(N5CCN(C)CC5)ccn4c(-c4c(C)ccc5[nH]ncc45)c3C#N)C2)C1` [Example 1-53], the figures for the IC50 in test [1], in test [2] and in test [3] were 0.099 µM, above 50 µM and 13.4 µM, respectively.
`C=CC(=O)N1CC2(CCN(c3nc4cc(-c5nccs5)cn4c(-c4c(C)ccc5[nH]ncc45)c3C#N)C2)C1` [Example 1-54]: the concentration for half-maximal inhibition (IC50) was 0.122 µM in test [1], above 5 µM in test [2] and 0.976 µM in test [3].
With `C=CC(=O)N1CC2(CCN(c3nc4c(c(-c5c(C)ccc6[nH]ncc56)c3C#N)CCC(C)C4)C2)C1` (stereo not drawn) [Example 2-1, 2-(2-acryloyl-2,6-diazaspiro[3.4]octan-6-yl)-7-methyl-4-(5-methyl-1H-indazol-4-yl)-5,6,7,8-tetrahydroquinoline-3-carbonitrile], the figures for the half-maximal inhibitory concentration (IC50) in test [1], in test [2] and in test [3] were 0.042 µM, 3.1 µM and 0.43 µM, respectively.
With `C=CC(=O)N1CC2(CCN(c3nc4ccccc4c(-c4c(C)ccc5cn[nH]c45)c3C#N)C2)C1` [Example 2-2, 4-(6-methyl-1H-indazol-7-yl)-2-(2-(2-propenoyl)-2,6-diazaspiro[3.4]octan-6-yl)-3-quinolinecarbonitrile], the results for the IC50 in test [1], in test [2] and in test [3] were 0.694 µM, 6.25 µM and 1.73 µM, respectively.
As for `C=CC(=O)N1CC2(CCN(c3nc4ccccc4c(-c4cccc5sc(N)nc45)c3C#N)C2)C1` [Example 2-3, 4-(2-amino-1,3-benzothiazol-4-yl)-2-(2-(2-propenoyl)-2,6-diazaspiro[3.4]octan-6-yl)-3-quinolinecarbonitrile], the half-maximal inhibitory concentration (IC50) in test [1] was found to be 0.537 µM; in test [2], 3.12 µM; in test [3], 0.693 µM.
